This note sets out measurements from ChEMBL document CHEMBL6074711, “Design, Synthesis, and Activity Evaluation of C-23-Modified 5-O-Mycaminosyltylonolide Derivatives” (ACS Med Chem Lett, 2024).

Each structure is given as a SMILES string. Converted amounts (≈) assume the structure as drawn.

Holding throughout (assay type): functional
Details in all cases: time 16-20 hrs

For one assay, the system named is Escherichia coli. In words: Antibacterial activity against Escherichia coli ATCC25922 incubated for 16 to 20 hrs by broth microdilution method.
A further assay relates to Enterococcus faecalis. Description: Antibacterial activity against Enterococcus faecalis ATCC29212 incubated for 16 to 20 hrs by broth microdilution method.
Assay [1] relates to Stenotrophomonas maltophilia. Description: Antibacterial activity against Stenotrophomonas maltophilia ATCC17808 incubated for 16 to 20 hrs by broth microdilution method.
A further assay concerns Staphylococcus aureus. In words: Antibacterial activity against Staphylococcus aureus ATCC25923 incubated for 16 to 20 hrs by broth microdilution method.

As to `CC[C@H]1OC(=O)C[C@@H](O)[C@H](C)[C@@H](O[C@@H]2O[C@H](C)[C@@H](O)[C@H](N(C)C)[C@H]2O)[C@@H](CCN(C)Cc2cn(-c3cnc4ccccc4c3)nn2)C[C@@H](C)C(=O)/C=C/C(C)=C/[C@@H]1CNCc1ccc(F)cc1`, the MIC against Escherichia coli came out at 8 µg/mL (≈ 8.62 µM); against Enterococcus faecalis, 8 µg/mL (≈ 8.62 µM); in assay [1], 4 µg/mL (≈ 4.31 µM); in the assay with Staphylococcus aureus, 2 µg/mL (≈ 2.15 µM).
As for `CC[C@H]1OC(=O)C[C@@H](O)[C@H](C)[C@@H](O[C@@H]2O[C@H](C)[C@@H](O)[C@H](N(C)C)[C@H]2O)[C@@H](CCN(Cc2cn(-c3cnc4ccccc4c3)nn2)c2ccccc2)C[C@@H](C)C(=O)/C=C/C(C)=C/[C@@H]1CN(C)C(C)C`, the MIC worked out at 8 µg/mL (≈ 8.53 µM) in the assay with Escherichia coli and 0.5 µg/mL (≈ 0.533 µM) with Staphylococcus aureus.
Taken in the same sequence, the figures for `CCCCN(CCCC)C[C@H]1/C=C(C)/C=C/C(=O)[C@H](C)C[C@H](CCN(Cc2cn(-c3cnc4ccccc4c3)nn2)c2ccccc2)[C@H](O[C@@H]2O[C@H](C)[C@@H](O)[C@H](N(C)C)[C@H]2O)[C@@H](C)[C@H](O)CC(=O)O[C@@H]1CC` were 32 µg/mL (≈ 32.2 µM) and 1 µg/mL (≈ 1.01 µM).
For the molecule `CC[C@H]1OC(=O)C[C@@H](O)[C@H](C)[C@@H](O[C@@H]2O[C@H](C)[C@@H](O)[C@H](N(C)C)[C@H]2O)[C@@H](CCN(C)Cc2cn(-c3cnc4ccccc4c3)nn2)C[C@@H](C)C(=O)/C=C/C(C)=C/[C@@H]1CNCc1cccc(Br)c1`, the minimal inhibitory concentration (MIC) in the assay with Escherichia coli turned out to be 8 µg/mL (≈ 8.09 µM); against Enterococcus faecalis it was 8 µg/mL (≈ 8.09 µM); in assay [1], 8 µg/mL (≈ 8.09 µM); against Staphylococcus aureus it was 4 µg/mL (≈ 4.04 µM).
With `CCCNC[C@H]1/C=C(C)/C=C/C(=O)[C@H](C)C[C@H](CCN(C)Cc2cn(-c3cnc4ccccc4c3)nn2)[C@H](O[C@@H]2O[C@H](C)[C@@H](O)[C@H](N(C)C)[C@H]2O)[C@@H](C)[C@H](O)CC(=O)O[C@@H]1CC`, the MIC was found to be 8 µg/mL (≈ 9.28 µM) with Escherichia coli and 2 µg/mL (≈ 2.32 µM) in the assay with Staphylococcus aureus.
Take `CCCNC[C@H]1/C=C(C)/C=C/C(=O)[C@H](C)C[C@H](CCNCc2cn(-c3cnc4ccccc4c3)nn2)[C@H](O[C@@H]2O[C@H](C)[C@@H](O)[C@H](N(C)C)[C@H]2O)[C@@H](C)[C@H](O)CC(=O)O[C@@H]1CC`: the figures for the minimal inhibitory concentration (MIC) in the assay with Escherichia coli and with Staphylococcus aureus were 8 µg/mL (≈ 9.43 µM) and 1 µg/mL (≈ 1.18 µM), respectively.
For `CCCN(C)C[C@H]1/C=C(C)/C=C/C(=O)[C@H](C)C[C@H](CCN(Cc2cn(-c3cnc4ccccc4c3)nn2)c2ccccc2)[C@H](O[C@@H]2O[C@H](C)[C@@H](O)[C@H](N(C)C)[C@H]2O)[C@@H](C)[C@H](O)CC(=O)O[C@@H]1CC` the same measures were 4 µg/mL (≈ 4.26 µM) and 0.5 µg/mL (≈ 0.533 µM).
As for `CC[C@H]1OC(=O)C[C@@H](O)[C@H](C)[C@@H](O[C@@H]2O[C@H](C)[C@@H](O)[C@H](N(C)C)[C@H]2O)[C@@H](CCN(C)Cc2cn(-c3cnc4ccccc4c3)nn2)C[C@@H](C)C(=O)/C=C/C(C)=C/[C@@H]1CNc1ccc(I)cc1`, the MIC in the assay on Escherichia coli was 4 µg/mL (≈ 3.91 µM); in the assay with Enterococcus faecalis, 8 µg/mL (≈ 7.83 µM); in assay [1] it was 4 µg/mL (≈ 3.91 µM); with Staphylococcus aureus, 2 µg/mL (≈ 1.96 µM).
Regarding `CC[C@H]1OC(=O)C[C@@H](O)[C@H](C)[C@@H](O[C@@H]2O[C@H](C)[C@@H](O)[C@H](N(C)C)[C@H]2O)[C@@H](CCNCc2cn(-c3cnc4ccccc4c3)nn2)C[C@@H](C)C(=O)/C=C/C(C)=C/[C@@H]1CNCc1ccc(Br)cc1`, the MIC against Escherichia coli was 2 µg/mL (≈ 2.05 µM); in the assay with Enterococcus faecalis it was 2 µg/mL (≈ 2.05 µM); in assay [1] it was 2 µg/mL (≈ 2.05 µM); in the assay with Staphylococcus aureus, 1 µg/mL (≈ 1.03 µM).
`CC[C@H]1OC(=O)C[C@@H](O)[C@H](C)[C@@H](O[C@@H]2O[C@H](C)[C@@H](O)[C@H](N(C)C)[C@H]2O)[C@@H](CCNCc2cn(-c3cnc4ccccc4c3)nn2)C[C@@H](C)C(=O)/C=C/C(C)=C/[C@@H]1CO`: the MIC in the assay on Escherichia coli was 4 µg/mL (≈ 4.96 µM); against Staphylococcus aureus, 0.25 µg/mL (≈ 0.31 µM).
For `CC[C@H]1OC(=O)C[C@@H](O)[C@H](C)[C@@H](O[C@@H]2O[C@H](C)[C@@H](O)[C@H](N(C)C)[C@H]2O)[C@@H](CCN(Cc2cn(-c3cnc4ccccc4c3)nn2)c2ccccc2)C[C@@H](C)C(=O)/C=C/C(C)=C/[C@@H]1CN(C)C1CCCCC1` the same measures were 4 µg/mL (≈ 4.09 µM) and 0.5 µg/mL (≈ 0.511 µM).
In the case of `CC[C@H]1OC(=O)C[C@@H](O)[C@H](C)[C@@H](O[C@@H]2O[C@H](C)[C@@H](O)[C@H](N(C)C)[C@H]2O)[C@@H](CCNCc2cn(-c3cnc4ccccc4c3)nn2)C[C@@H](C)C(=O)/C=C/C(C)=C/[C@@H]1CN(C)C1CCCCC1`, the MIC is 2 µg/mL (≈ 2.22 µM) against Escherichia coli and 1 µg/mL (≈ 1.11 µM) in the assay on Staphylococcus aureus.
Taken in the same sequence, the figures for `CC[C@H]1OC(=O)C[C@@H](O)[C@H](C)[C@@H](O[C@@H]2O[C@H](C)[C@@H](O)[C@H](N(C)C)[C@H]2O)[C@@H](CCNCc2cn(-c3cnc4ccccc4c3)nn2)C[C@@H](C)C(=O)/C=C/C(C)=C/[C@@H]1CN(C)C(C)C` were 2 µg/mL (≈ 2.32 µM) and 0.5 µg/mL (≈ 0.58 µM).
For `CC[C@H]1OC(=O)C[C@@H](O)[C@H](C)[C@@H](O[C@@H]2O[C@H](C)[C@@H](O)[C@H](N(C)C)[C@H]2O)[C@@H](CCN(Cc2cn(-c3cnc4ccccc4c3)nn2)c2ccccc2)C[C@@H](C)C(=O)/C=C/C(C)=C/[C@@H]1CI`, the MIC worked out at 32 µg/mL (≈ 32.2 µM) against Escherichia coli and 2 µg/mL (≈ 2.01 µM) in the assay with Staphylococcus aureus.
Taken in the same sequence, the figures for `CC[C@H]1OC(=O)C[C@@H](O)[C@H](C)[C@@H](O[C@@H]2O[C@H](C)[C@@H](O)[C@H](N(C)C)[C@H]2O)[C@@H](CCN(Cc2cn(-c3cnc4ccccc4c3)nn2)c2ccccc2)C[C@@H](C)C(=O)/C=C/C(C)=C/[C@@H]1CN(C)CC` were 2 µg/mL (≈ 2.16 µM) and 0.5 µg/mL (≈ 0.541 µM).
With `CC[C@H]1OC(=O)C[C@@H](O)[C@H](C)[C@@H](O[C@@H]2O[C@H](C)[C@@H](O)[C@H](N(C)C)[C@H]2O)[C@@H](CCNCc2cn(-c3cnc4ccccc4c3)nn2)C[C@@H](C)C(=O)/C=C/C(C)=C/[C@@H]1CN1CCCCC1`, the MIC was found to be 2 µg/mL (≈ 2.29 µM) against Escherichia coli and 0.5 µg/mL (≈ 0.572 µM) with Staphylococcus aureus.
Taken in the same sequence, the figures for `CCCCN(CCCC)C[C@H]1/C=C(C)/C=C/C(=O)[C@H](C)C[C@H](CCNCc2cn(-c3cnc4ccccc4c3)nn2)[C@H](O[C@@H]2O[C@H](C)[C@@H](O)[C@H](N(C)C)[C@H]2O)[C@@H](C)[C@H](O)CC(=O)O[C@@H]1CC` were 8 µg/mL (≈ 8.71 µM) and 2 µg/mL (≈ 2.18 µM).
Regarding `CC[C@H]1OC(=O)C[C@@H](O)[C@H](C)[C@@H](O[C@@H]2O[C@H](C)[C@@H](O)[C@H](N(C)C)[C@H]2O)[C@@H](CCNCc2cn(-c3cnc4ccccc4c3)nn2)C[C@@H](C)C(=O)/C=C/C(C)=C/[C@@H]1CI`, the figures for the MIC in the assay on Escherichia coli and in the assay with Staphylococcus aureus were 8 µg/mL (≈ 8.73 µM) and 2 µg/mL (≈ 2.18 µM), respectively.
For the molecule `CC[C@H]1OC(=O)C[C@@H](O)[C@H](C)[C@@H](O[C@@H]2O[C@H](C)[C@@H](O)[C@H](N(C)C)[C@H]2O)[C@@H](CCN(Cc2cn(-c3cnc4ccccc4c3)nn2)c2ccccc2)C[C@@H](C)C(=O)/C=C/C(C)=C/[C@@H]1CNCc1ccccc1`, the MIC against Escherichia coli was 8 µg/mL (≈ 8.23 µM); against Staphylococcus aureus, 4 µg/mL (≈ 4.11 µM).
`CC[C@H]1OC(=O)C[C@@H](O)[C@H](C)[C@@H](O[C@@H]2O[C@H](C)[C@@H](O)[C@H](N(C)C)[C@H]2O)[C@@H](CCNCc2cn(-c3cnc4ccccc4c3)nn2)C[C@@H](C)C(=O)/C=C/C(C)=C/[C@@H]1CN(CC)CC`: the MIC with Escherichia coli stood at 2 µg/mL (≈ 2.32 µM); against Staphylococcus aureus it was 0.5 µg/mL (≈ 0.58 µM).
Taken in the same sequence, the figures for `CC[C@H]1OC(=O)C[C@@H](O)[C@H](C)[C@@H](O[C@@H]2O[C@H](C)[C@@H](O)[C@H](N(C)C)[C@H]2O)[C@@H](CCN(C)Cc2cn(-c3cnc4ccccc4c3)nn2)C[C@@H](C)C(=O)/C=C/C(C)=C/[C@@H]1CO` were 4 µg/mL (≈ 4.87 µM) and 1 µg/mL (≈ 1.22 µM).
As to `CC[C@H]1OC(=O)C[C@@H](O)[C@H](C)[C@@H](O[C@@H]2O[C@H](C)[C@@H](O)[C@H](N(C)C)[C@H]2O)[C@@H](CCNCc2cn(-c3cnc4ccccc4c3)nn2)C[C@@H](C)C(=O)/C=C/C(C)=C/[C@@H]1CN(C)C`, the MIC with Escherichia coli was found to be 2 µg/mL (≈ 2.4 µM); against Staphylococcus aureus it was 0.5 µg/mL (≈ 0.599 µM).
Taken in the same sequence, the figures for `CC[C@H]1OC(=O)C[C@@H](O)[C@H](C)[C@@H](O[C@@H]2O[C@H](C)[C@@H](O)[C@H](N(C)C)[C@H]2O)[C@@H](CCN(C)Cc2cn(-c3cnc4ccccc4c3)nn2)C[C@@H](C)C(=O)/C=C/C(C)=C/[C@@H]1CN(C)C1CCCCC1` were 4 µg/mL (≈ 4.37 µM) and 1 µg/mL (≈ 1.09 µM).
For `CC[C@H]1OC(=O)C[C@@H](O)[C@H](C)[C@@H](O[C@@H]2O[C@H](C)[C@@H](O)[C@H](N(C)C)[C@H]2O)[C@@H](CCNCc2cn(-c3cnc4ccccc4c3)nn2)C[C@@H](C)C(=O)/C=C/C(C)=C/[C@@H]1CN1CCCCCC1` the same measures were 1 µg/mL (≈ 1.13 µM) and 0.5 µg/mL (≈ 0.563 µM).
With `CCCNC[C@H]1/C=C(C)/C=C/C(=O)[C@H](C)C[C@H](CCN(Cc2cn(-c3cnc4ccccc4c3)nn2)c2ccccc2)[C@H](O[C@@H]2O[C@H](C)[C@@H](O)[C@H](N(C)C)[C@H]2O)[C@@H](C)[C@H](O)CC(=O)O[C@@H]1CC`, the MIC in the assay on Escherichia coli was found to be 8 µg/mL (≈ 8.66 µM); with Staphylococcus aureus, 2 µg/mL (≈ 2.16 µM).
For `CC[C@H]1OC(=O)C[C@@H](O)[C@H](C)[C@@H](O[C@@H]2O[C@H](C)[C@@H](O)[C@H](N(C)C)[C@H]2O)[C@@H](CCNCc2cn(-c3cnc4ccccc4c3)nn2)C[C@@H](C)C(=O)/C=C/C(C)=C/[C@@H]1CN(C)CC`, the MIC came out at 4 µg/mL (≈ 4.72 µM) in the assay with Escherichia coli and 0.5 µg/mL (≈ 0.59 µM) against Staphylococcus aureus.
In the case of `CC[C@H]1OC(=O)C[C@@H](O)[C@H](C)[C@@H](O[C@@H]2O[C@H](C)[C@@H](O)[C@H](N(C)C)[C@H]2O)[C@@H](CCNCc2cn(-c3cnc4ccccc4c3)nn2)C[C@@H](C)C(=O)/C=C/C(C)=C/[C@@H]1CN1CCCCCCC1`, the MIC against Escherichia coli stood at 2 µg/mL (≈ 2.22 µM); in the assay on Staphylococcus aureus, 0.5 µg/mL (≈ 0.554 µM).
Consider `CCCN(C)C[C@H]1/C=C(C)/C=C/C(=O)[C@H](C)C[C@H](CCNCc2cn(-c3cnc4ccccc4c3)nn2)[C@H](O[C@@H]2O[C@H](C)[C@@H](O)[C@H](N(C)C)[C@H]2O)[C@@H](C)[C@H](O)CC(=O)O[C@@H]1CC`, for which the MIC against Escherichia coli is 4 µg/mL (≈ 4.64 µM); against Staphylococcus aureus, 0.5 µg/mL (≈ 0.58 µM).
Take `CC[C@H]1OC(=O)C[C@@H](O)[C@H](C)[C@@H](O[C@@H]2O[C@H](C)[C@@H](O)[C@H](N(C)C)[C@H]2O)[C@@H](CCN(C)Cc2cn(-c3cnc4ccccc4c3)nn2)C[C@@H](C)C(=O)/C=C/C(C)=C/[C@@H]1CI`: the MIC came to 16 µg/mL (≈ 17.2 µM) against Escherichia coli and 2 µg/mL (≈ 2.15 µM) with Staphylococcus aureus.
